{
  "source": "patent US10919895B2",
  "about": "“Toll-like receptor 7 (TLR7) agonists having a pyridine or pyrazine moiety, conjugates thereof, and methods and uses therefor” (BRISTOL-MYERS SQUIBB COMPANY, priority 2017, dated 2021)",
  "key": {"[1]": {"biological_target": "human TLR7 (Homo sapiens (Human), UniProt Q9NYK1)", "sequence (Q9NYK1 27-1049)": "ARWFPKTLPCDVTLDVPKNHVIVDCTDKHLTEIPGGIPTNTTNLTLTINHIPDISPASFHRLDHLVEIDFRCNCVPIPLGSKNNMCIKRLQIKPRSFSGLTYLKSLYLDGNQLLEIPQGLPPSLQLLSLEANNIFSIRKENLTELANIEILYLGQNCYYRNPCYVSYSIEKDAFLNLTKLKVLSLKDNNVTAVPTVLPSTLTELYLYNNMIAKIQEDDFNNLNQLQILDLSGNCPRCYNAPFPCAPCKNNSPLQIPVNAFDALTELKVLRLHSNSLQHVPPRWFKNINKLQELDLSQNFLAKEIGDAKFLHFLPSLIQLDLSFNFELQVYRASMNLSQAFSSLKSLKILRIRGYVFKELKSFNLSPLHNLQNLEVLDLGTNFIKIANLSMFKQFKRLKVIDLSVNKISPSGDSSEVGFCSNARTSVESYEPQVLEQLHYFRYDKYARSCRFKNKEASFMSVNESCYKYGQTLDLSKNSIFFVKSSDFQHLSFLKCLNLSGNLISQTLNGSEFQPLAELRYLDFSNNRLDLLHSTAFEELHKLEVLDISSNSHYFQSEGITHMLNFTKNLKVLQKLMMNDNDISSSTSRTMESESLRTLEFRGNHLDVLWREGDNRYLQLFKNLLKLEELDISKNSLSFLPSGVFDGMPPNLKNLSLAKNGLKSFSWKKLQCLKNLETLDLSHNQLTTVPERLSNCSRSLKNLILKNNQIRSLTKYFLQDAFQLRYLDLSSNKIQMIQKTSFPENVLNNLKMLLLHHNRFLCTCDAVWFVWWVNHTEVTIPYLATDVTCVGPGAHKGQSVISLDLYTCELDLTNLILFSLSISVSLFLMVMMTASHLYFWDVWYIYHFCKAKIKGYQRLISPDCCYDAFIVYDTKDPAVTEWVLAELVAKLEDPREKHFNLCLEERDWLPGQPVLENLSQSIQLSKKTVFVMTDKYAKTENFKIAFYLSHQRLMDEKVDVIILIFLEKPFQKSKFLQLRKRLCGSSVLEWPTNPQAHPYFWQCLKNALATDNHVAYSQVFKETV", "test": "HEK-Blue TLR7 reporter assay for TLR7 agonist activity", "format": "cell-based", "details": "HEK-Blue TLR7 cells, SEAP reporter, 18 h treatment; read-out: TLR7 Agonism (EC50)", "procedure": "This example describes a method for assaying TLR7 agonist activity of the compounds disclosed in this specification.\nHEK-Blue™ TLR7 cells were added to each well of a 384-well tissue-culture plate (15,000 cells per well) and incubated 16-18 h at 37° C., 5% CO2. Compounds (100 nl) were dispensed into wells containing the HEK-Blue™ TLR cells and the treated cells were incubated at 37° C., 5% CO2. After 18 h treatment ten microliters of freshly-prepared Quanti-Blue™ reagent (Invivogen) was added to each well, incubated for 30 min (37° C., 5% CO2) and SEAP levels measured using an Envision plate reader (OD=620 nm)."}, "[2]": {"tested_on": "interleukin 6 (IL-6)", "test": "IL-6 induction in human whole blood (AlphaLISA)", "format": "cell-based", "details": "37° C., 20 h", "procedure": "This example describes a method for assaying interleukin 6 induction by compounds disclosed in this specification.\nCompounds diluted in DMSO were transferred to individual wells of a Matrix Technologies clear, V-bottom 384-well plate using ECHO acoustic liquid handling technology (25 nL per well). Human whole-blood samples (25 uL) were added to each well using a CyBio FeliX liquid handling instrument. The plate was shaken on a plate shaker for three min before incubating the reaction mixtures at 37° C. for 20 h. Basel RPMI 1640 medium (supplemented with L-glutamine) was then added to each well (25 uL per well) prior to liberating plasma from each sample by centrifugation (450×g, 5 min, ambient temperature). Treated plasma samples (3 uL) were subsequently transferred to individual wells of a white, shallow, 384-well ProxiPlate (Perkin Elmer) using the FeliX liquid handling instrument and their interleukin 6 levels were measured using AlphaLISA technology as described by the manufacturer, PerkinElmer. Data analyses software was used to determine compound EC50 values where the baseline was established using average DMSO values and 100% induction established using reference compound values at the highest concentration tested. EC50's can be determined with software such as Graphpad Prism™."}, "[3]": {"tested_on": "IFN-α", "details": "fold lower potency vs corresponding purine-8-one compound; cited from earlier work"}},
  "data": [
    {"compound": "CCCCOc1nc(N)c2nc(O)n(Cc3ccc(CNCCCOCCOCCOCCCNC(=O)OC(C)(C)C)cn3)c2n1", "note": "[Ib-08]", "values": [
      {"measurement": "EC50", "setting": "[1]", "result": 47, "unit": "nM"},
      {"measurement": "EC50", "setting": "[2]", "result": 330, "unit": "nM"}
    ]},
    {"compound": "CCCCOc1nc(N)c2nc(O)n(Cc3ccc(CNCc4ccccc4)nc3)c2n1", "note": "[Ic-06]", "values": [
      {"measurement": "EC50", "setting": "[2]", "result": 180, "unit": "nM"}
    ]},
    {"compound": "CCCCOc1nc(N)c2nc(O)n(Cc3ccc(CN4CCC(CN)CC4)nc3)c2n1", "note": "[Ic-13]", "values": [
      {"measurement": "EC50", "setting": "[2]", "result": 11, "unit": "nM"}
    ]},
    {"compound": "CCCCOc1nc(N)c2nc(O)n(Cc3ccc(CNCCCOCCOCCOCCCNC(=O)OC(C)(C)C)nc3)c2n1", "note": "[Ic-08]", "values": [
      {"measurement": "EC50", "setting": "[1]", "result": 23, "unit": "nM"},
      {"measurement": "EC50", "setting": "[2]", "result": 150, "unit": "nM"}
    ]},
    {"compound": "CCCCOc1nc(N)c2nc(O)n(Cc3ccc(CNCCC)nc3)c2n1", "note": "[Ic-10]", "values": [
      {"measurement": "EC50", "setting": "[1]", "result": 6.1, "unit": "nM"},
      {"measurement": "EC50", "setting": "[2]", "result": 27, "unit": "nM"}
    ]},
    {"compound": "CCCCOc1nc(N)c2nc(O)n(Cc3ccc(CNCc4ccccc4)cn3)c2n1", "note": "[Ib-06]", "values": [
      {"measurement": "EC50", "setting": "[2]", "result": 190, "unit": "nM"}
    ]},
    {"compound": "CCCCOc1nc(N)c2nc(O)n(Cc3cnc(CNC(C)C)cn3)c2n1", "note": "[Ia-06]", "values": [
      {"measurement": "EC50", "setting": "[1]", "result": 83, "unit": "nM"},
      {"measurement": "EC50", "setting": "[2]", "result": 210, "unit": "nM"}
    ]},
    {"compound": "CCCCOc1nc(N)c2nc(O)n(Cc3ccc(CN4CCC(N)CC4)nc3)c2n1", "note": "[Ic-12]", "values": [
      {"measurement": "EC50", "setting": "[2]", "result": 13, "unit": "nM"}
    ]},
    {"compound": "CCCCOc1nc(N)c2nc(O)n(Cc3cnc(CNCc4ccncc4)cn3)c2n1", "note": "[Ia-01]", "values": [
      {"measurement": "EC50", "setting": "[1]", "result": 330, "unit": "nM"},
      {"measurement": "EC50", "setting": "[2]", "result": 1000, "unit": "nM"}
    ]},
    {"compound": "CCCCOc1nc(N)c2nc(O)n(Cc3ccc(CNC4CCC4)cn3)c2n1", "note": "[Ib-04]", "values": [
      {"measurement": "EC50", "setting": "[1]", "result": 12, "unit": "nM"},
      {"measurement": "EC50", "setting": "[2]", "result": 78, "unit": "nM"}
    ]},
    {"compound": "CCCCOc1nc(N)c2nc(O)n(Cc3cnc(CNC4COC4)cn3)c2n1", "note": "[Ia-07]", "values": [
      {"measurement": "EC50", "setting": "[1]", "result": 490, "unit": "nM"},
      {"measurement": "EC50", "setting": "[2]", "result": 1000, "unit": "nM"}
    ]},
    {"compound": "CCCCOc1nc(N)c2nc(O)n(Cc3ccc(CNC4CC4)cn3)c2n1", "note": "[Ib-03]", "values": [
      {"measurement": "EC50", "setting": "[1]", "result": 18, "unit": "nM"},
      {"measurement": "EC50", "setting": "[2]", "result": 62, "unit": "nM"}
    ]},
    {"compound": "CCCCOc1nc(N)c2nc(O)n(Cc3cnc(CNCCOC)cn3)c2n1", "note": "[Ia-04]", "values": [
      {"measurement": "EC50", "setting": "[1]", "result": 310, "unit": "nM"},
      {"measurement": "EC50", "setting": "[2]", "result": 600, "unit": "nM"}
    ]},
    {"compound": "CCCCNCc1cnc(Cn2c(O)nc3c(N)nc(OCCCC)nc32)cn1", "note": "[Ia-09]", "values": [
      {"measurement": "EC50", "setting": "[1]", "result": 89, "unit": "nM"},
      {"measurement": "EC50", "setting": "[2]", "result": 420, "unit": "nM"}
    ]},
    {"compound": "CCCCNCc1ccc(Cn2c(O)nc3c(N)nc(OCCCC)nc32)cn1", "note": "[Ic-01]", "values": [
      {"measurement": "EC50", "setting": "[1]", "result": 4.8, "unit": "nM"},
      {"measurement": "EC50", "setting": "[2]", "result": 26, "unit": "nM"}
    ]},
    {"compound": "CCCCOc1nc(N)c2nc(O)n(Cc3cnc(CO)cn3)c2n1", "note": "[Compound 6]", "values": [
      {"measurement": "EC50", "setting": "[1]", "result": 288, "unit": "nM"}
    ]},
    {"compound": "CCCCOc1nc(N)c2nc(O)n(Cc3ccc(CNC4CCCC4)nc3)c2n1", "note": "[Ic-11]", "values": [
      {"measurement": "EC50", "setting": "[2]", "result": 23, "unit": "nM"}
    ]},
    {"compound": "CCCCOc1nc(N)c2nc(O)n(Cc3ccc(CNC4CC4)nc3)c2n1", "note": "[Ic-03]", "values": [
      {"measurement": "EC50", "setting": "[1]", "result": 5.3, "unit": "nM"},
      {"measurement": "EC50", "setting": "[2]", "result": 14, "unit": "nM"}
    ]},
    {"compound": "CCCCNCc1ccc(Cn2c(O)nc3c(N)nc(OCCCC)nc32)nc1", "note": "[Ib-01]", "values": [
      {"measurement": "EC50", "setting": "[1]", "result": 15, "unit": "nM"},
      {"measurement": "EC50", "setting": "[2]", "result": 77, "unit": "nM"}
    ]},
    {"compound": "CCCCOc1nc(N)c2nc(O)n(Cc3cnc(CNC4CCC4)cn3)c2n1", "note": "[Ia-08]", "values": [
      {"measurement": "EC50", "setting": "[1]", "result": 24, "unit": "nM"},
      {"measurement": "EC50", "setting": "[2]", "result": 220, "unit": "nM"}
    ]},
    {"compound": "CCCCOc1nc(N)c2nc(O)n(Cc3ccccc3)c2n1", "note": "[Compound B, reference compound]", "values": [
      {"measurement": "EC50", "setting": "[1]", "result": 470, "unit": "nM"}
    ]},
    {"compound": "CCCCOc1nc(N)c2nc(O)n(Cc3ccc(CNCCCN)nc3)c2n1", "note": "[Ic-05]", "values": [
      {"measurement": "EC50", "setting": "[1]", "result": 14, "unit": "nM"},
      {"measurement": "EC50", "setting": "[2]", "result": 28, "unit": "nM"}
    ]},
    {"compound": "CCCCOc1nc(N)c2nc(O)n(Cc3ccc(CNCCOC)cn3)c2n1", "note": "[Ib-02]", "values": [
      {"measurement": "EC50", "setting": "[1]", "result": 28, "unit": "nM"},
      {"measurement": "EC50", "setting": "[2]", "result": 110, "unit": "nM"}
    ]},
    {"compound": "CCCCOc1nc(N)c2nc(O)n(Cc3cnc(CNC4CC4)cn3)c2n1", "note": "[Ia-05]", "values": [
      {"measurement": "EC50", "setting": "[1]", "result": 140, "unit": "nM"},
      {"measurement": "EC50", "setting": "[2]", "result": 360, "unit": "nM"}
    ]},
    {"compound": "CCCCOc1nc(N)c2c(n1)N(Cc1cccc(CN3CCCC3)c1)CC(=O)N2", "note": "[Vesatolimod, vesatolimod]", "values": [
      {"measurement": "potency less than that of the corresponding purine-8-one compound, as measured by IFN-α induction", "setting": "[3]", "result": 100, "unit": "×"}
    ]},
    {"compound": "CCCCOc1nc(N)c2nc(O)n(Cc3ccc(CNCc4ccc(N)cc4)cn3)c2n1", "note": "[Ib-07]", "values": [
      {"measurement": "EC50", "setting": "[1]", "result": 41, "unit": "nM"},
      {"measurement": "EC50", "setting": "[2]", "result": 100, "unit": "nM"}
    ]},
    {"compound": "CCCCOc1nc(N)c2nc(O)n(Cc3cnc(CNCc4ccccc4)cn3)c2n1", "note": "[Ia-03]", "values": [
      {"measurement": "EC50", "setting": "[1]", "result": 180, "unit": "nM"},
      {"measurement": "EC50", "setting": "[2]", "result": 1000, "unit": "nM"}
    ]},
    {"compound": "CCCCOc1nc(N)c2nc(O)n(Cc3ccc(CNCCOC)nc3)c2n1", "note": "[Ic-02]", "values": [
      {"measurement": "EC50", "setting": "[1]", "result": 9, "unit": "nM"}
    ]},
    {"compound": "CCCCCCNCc1ccc(Cn2c(O)nc3c(N)nc(OCCCC)nc32)cn1", "note": "[Ic-09]", "values": [
      {"measurement": "EC50", "setting": "[2]", "result": 37, "unit": "nM"}
    ]},
    {"compound": "CCCCOc1nc(N)c2nc(O)n(Cc3ccc(CNCc4ccc(N)cc4)nc3)c2n1", "note": "[Ic-07]", "values": [
      {"measurement": "EC50", "setting": "[1]", "result": 11, "unit": "nM"},
      {"measurement": "EC50", "setting": "[2]", "result": 20, "unit": "nM"}
    ]},
    {"compound": "CCCCOc1nc(N)c2nc(O)n(Cc3cnc(CNC)cn3)c2n1", "note": "[Ia-10]", "values": [
      {"measurement": "EC50", "setting": "[1]", "result": 290, "unit": "nM"},
      {"measurement": "EC50", "setting": "[2]", "result": 570, "unit": "nM"}
    ]},
    {"compound": "CCCCOc1nc(N)c2nc(O)n(Cc3ccc(CNCCCN)cn3)c2n1", "note": "[Ib-05]", "values": [
      {"measurement": "EC50", "setting": "[1]", "result": 62, "unit": "nM"},
      {"measurement": "EC50", "setting": "[2]", "result": 260, "unit": "nM"}
    ]},
    {"compound": "CCCCOc1nc(N)c2nc(O)n(Cc3cnc(CNCC4COC4)cn3)c2n1", "note": "[Ia-02]", "values": [
      {"measurement": "EC50", "setting": "[1]", "result": 11200, "unit": "nM"}
    ]}
  ]
}
